Test results: US8536142B2, “Spinosyns for wound healing” (Eli Lilly and Company, priority 2004, dated 2013)
Where no end group is shown, it is not given here.

Tested on: vascular response of rat footpad blisters (CGRP, substance P, eNOS effectors)
Test: Blister model: effect of sensory nerve peptide antagonists and eNOS inhibitor on the vascular response to 0.5% spinosad
Type: in vivo
Experimental: Neurogenic inflammatory responses are assessed using a well-established method (Khalil & Helme, Brain Res. 527: 292-298 (1990)). Anaesthesia is induced in outbred male Sprague-Dawley rats with pentobarbitone sodium (60 mg/kg i.p). General anaesthesia is maintained by supplementary injections of 15 mg/kg. This method of anaesthesia has been shown not to alter the basal vasodilator responses in peripheral microvasculature (Khalil & Helm; Brain Res. 500: 256-262 (1989)). The left jugular vein is cannulated with polyethylene tubing for the intravenous administration of heparin/saline solution or drugs. Body temperature is maintained at 37° C. At the completion of the experiment, the animals are sacrificed by barbiturate overdose.
Blisters are induced in the middle region of the hindpaw in anaesthetised rats using vacuum pressure of −40 kPa applied for 30 minutes via a metal suction cap heated to 40° C. Once a blister is established, the epidermis (surface epithelium) is removed and a perspex chamber with inlet and outlet ports secured over the blister base. Ringer's solution is perfused over the blister surface and maintained by a peristaltic pump at 4 ml/hr to establish baseline measurements. Relative blood flow is monitored over time by a laser Doppler flowmeter via a probe placed immediately above the blister base and relative blood flux (volts) monitored continuously on a chart recorder. […]

For “CGRP8-37: CGRP antagonist; Auspep (VTHRLAGLLSRSGGVVKNNFVPTNVGSKAF; ends and bridges not checked; UniProt P06881 90-119, looked up, fragment)”, the “% contribution of effector to the vascular response of spinosad” value (effector blocked by the perfused substance (eNOS, CGRP, Substance P), 0.5% spinosad) was 27% and the “Blood flow as area under the curve” value (substance perfused 10 minutes, then co-perfused with 0.5% spinosad 30 minutes (Control = 0.5% spinosad alone), L-NAME 100 μM, CGRP8-37 1 μM, spantide II 10 μM, mean ± SEM, n = 6) was 83.2 (±6.5) cm^2.
